Reference: paper PMC10045534, “Preparation and Evaluation of 6-Gingerol Derivatives as Novel Antioxidants and Antiplatelet Agents” (Antioxidants, 2023)

What was measured:
washed human platelets = assay: Arachidonic acid-induced platelet aggregation (turbidimetric aggregometer); type: cell-based; conditions: for IC50: Platelet, 0.05 h, washed human platelets treated 3 min, then arachidonic acid (100 μM), mean ± SEM, n = 3, read-out: Antiplatelet IC50
Procedure: All bioactivity data processing, including the calculation of inhibition percentage, mean and corresponding standard error of the mean (SEM), and IC50 values, was performed by GraphPad Prism 8.0 (La Jolla, CA, USA). IC50 values were calculated from the sigmoidal dose–response curves obtained by the log(inhibitor) vs. response and variable slope (DPPH assay) or the log(inhibitor) vs. normalised response and variable slope nonlinear regression model. On the results obtained, no statistical evaluation was performed; instead, differences greater than two-fold were considered relevant. Plotting of the antiplatelet and COX-1 inhibitory IC50 values and the linear regression of the data was performed by Microsoft Excel.
Human platelet suspension (3 × 10^8/mL in Tyrode’s buffer) was prepared as previously described. The protocol for this study was approved by the institutional review board of Kaohsiung Medical University Hospital (Kaohsiung City, Taiwan). Platelets pre-treated with DMSO (vehicle control) or test compounds were stimulated with arachidonic acid (AA), and platelet aggregation was measured using turbidimetric aggregometer (Chrono-Log Co., Havertown, PA, USA) at 37 °C under stirring conditions (1200 rpm).

COX-1 enzyme = biological target: T1, COX-1 enzyme (Ovis aries, UniProt P05979); assay: COX-1 inhibitor screening kit, fluorometric (BioVision K548-100); type: biochemical; conditions: for IC50: mean ± SEM, n = 2; for LLE(COX-1): LLE = pIC50 − logPpredicted
T1 construct: purchased BioVision (via VWR International Kft.) K548-100
T1 sequence (P05979 25-600): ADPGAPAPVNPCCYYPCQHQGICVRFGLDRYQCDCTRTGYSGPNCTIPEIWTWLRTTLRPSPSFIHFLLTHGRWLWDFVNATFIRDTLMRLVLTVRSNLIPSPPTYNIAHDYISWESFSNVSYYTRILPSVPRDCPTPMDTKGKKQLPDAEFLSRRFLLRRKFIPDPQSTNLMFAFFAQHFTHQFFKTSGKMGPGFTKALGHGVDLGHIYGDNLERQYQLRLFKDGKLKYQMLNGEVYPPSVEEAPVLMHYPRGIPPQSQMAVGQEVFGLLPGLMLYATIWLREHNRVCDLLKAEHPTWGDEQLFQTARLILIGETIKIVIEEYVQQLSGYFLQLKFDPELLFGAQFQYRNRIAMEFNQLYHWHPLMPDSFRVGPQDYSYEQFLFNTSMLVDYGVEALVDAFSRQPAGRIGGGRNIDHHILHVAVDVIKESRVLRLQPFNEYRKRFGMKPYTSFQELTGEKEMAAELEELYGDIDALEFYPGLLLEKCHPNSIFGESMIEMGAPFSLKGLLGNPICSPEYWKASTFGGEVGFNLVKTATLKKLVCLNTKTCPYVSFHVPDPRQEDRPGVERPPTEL
Procedure: COX-1 inhibitory activity was tested based on the fluorometric method as described in BioVision’s COX-1 inhibitor screening kit leafkit (K548-100, BioVision, CA, USA). Sample solutions were prepared by dissolving in DMSO and subsequently buffer, to get desired concentrations. In a 96-well white plate (655101, F-bottom, Grenier bio-one, Germany), 80 µL reaction mix (containing 76 µL assay buffer, 1 µL COX Probe, 2 µL COX cofactor, and 1 µL COX-1 enzyme) was added to 10 µL sample solution, DMSO and assay buffer to get test wells assigned for sample screen (S), negative control (N) and blank, respectively. An aliquot of 10 µL of arachidonic/NaOH solution was added to each well using a multi-channel pipette to initiate the reaction at the same time, and the fluorescence of each well was measured kinetically at Ex/Em 550/610 nm, at 25OC for 10 min using a FluoStar Optima plate reader (BMG Labtech, Ortenberg, Germany). The COX inhibitory activity of SC560, a standard inhibitor, was also determined.
The change in fluorescence between two points, T1 and T2 were determined, and relative inhibition was calculated according to the following equation:% Inhibition = (ΔN − ΔS)/ΔN × 100 (1) where N is the absorbance of the negative control, and S is that of the sample.
Dose-effect studies on the compounds were used to determine the concentration that inhibits 50% of the enzyme activity. The sigmoidal dose–response model was obtained by using the software GraphPad Prism 8.0 (La Jolla, CA, USA), and these were used to determine the IC50 values of the compounds.

[1] = Oxygen radical absorbance capacity (ORAC); conditions: 1 µM sample; mean ± SEM, n = 3
Procedure: AAPH ((2,20-Azobis(2-methyl-propionamidine) dihydrochloride) free radical and Trolox standard were purchased from Sigma-Aldrich Hungary. Fluorescein was purchased from Fluka Analytical, Tokyo, Japan. ORAC assay was carried out In a 96-well microplate based on the method from previous study. Briefly, 20 µL of the samples (1 µM final concentration, dissolved in phosphate buffer, pH = 7.4, containing 1% MeOH) were mixed with 60 µL of AAPH (12 mM final concentration, dissolved in phosphate buffer, pH = 7.4) and 120 µL of fluorescein solution (70 nM final concentration, dissolved in phosphate buffer), then the fluorescence was measured (excitation at λ = 485 nm, and emission at λ = 520 nm) through 3 h with 1.5-min cycle intervals with a BMG Labtech FluoStar Optima plate-reader. All experiments were carried out in triplicate, and Trolox was used as standard. The antioxidant capacity is expressed as Trolox Equivalent (TE), as calculated using GraphPad Prism 8.0 (La Jolla, CA, USA).

xanthine oxidase (XO) = biological target: T2, xanthine oxidase (XO) (Bos taurus, UniProt P80457); assay: Xanthine oxidase inhibition, spectrophotometric; type: biochemical; conditions: read-out: XO Inhibition (%)
T2 construct: purchased Sigma (Merck KGaA)
T2 sequence (P80457 2-1332 limits assumed): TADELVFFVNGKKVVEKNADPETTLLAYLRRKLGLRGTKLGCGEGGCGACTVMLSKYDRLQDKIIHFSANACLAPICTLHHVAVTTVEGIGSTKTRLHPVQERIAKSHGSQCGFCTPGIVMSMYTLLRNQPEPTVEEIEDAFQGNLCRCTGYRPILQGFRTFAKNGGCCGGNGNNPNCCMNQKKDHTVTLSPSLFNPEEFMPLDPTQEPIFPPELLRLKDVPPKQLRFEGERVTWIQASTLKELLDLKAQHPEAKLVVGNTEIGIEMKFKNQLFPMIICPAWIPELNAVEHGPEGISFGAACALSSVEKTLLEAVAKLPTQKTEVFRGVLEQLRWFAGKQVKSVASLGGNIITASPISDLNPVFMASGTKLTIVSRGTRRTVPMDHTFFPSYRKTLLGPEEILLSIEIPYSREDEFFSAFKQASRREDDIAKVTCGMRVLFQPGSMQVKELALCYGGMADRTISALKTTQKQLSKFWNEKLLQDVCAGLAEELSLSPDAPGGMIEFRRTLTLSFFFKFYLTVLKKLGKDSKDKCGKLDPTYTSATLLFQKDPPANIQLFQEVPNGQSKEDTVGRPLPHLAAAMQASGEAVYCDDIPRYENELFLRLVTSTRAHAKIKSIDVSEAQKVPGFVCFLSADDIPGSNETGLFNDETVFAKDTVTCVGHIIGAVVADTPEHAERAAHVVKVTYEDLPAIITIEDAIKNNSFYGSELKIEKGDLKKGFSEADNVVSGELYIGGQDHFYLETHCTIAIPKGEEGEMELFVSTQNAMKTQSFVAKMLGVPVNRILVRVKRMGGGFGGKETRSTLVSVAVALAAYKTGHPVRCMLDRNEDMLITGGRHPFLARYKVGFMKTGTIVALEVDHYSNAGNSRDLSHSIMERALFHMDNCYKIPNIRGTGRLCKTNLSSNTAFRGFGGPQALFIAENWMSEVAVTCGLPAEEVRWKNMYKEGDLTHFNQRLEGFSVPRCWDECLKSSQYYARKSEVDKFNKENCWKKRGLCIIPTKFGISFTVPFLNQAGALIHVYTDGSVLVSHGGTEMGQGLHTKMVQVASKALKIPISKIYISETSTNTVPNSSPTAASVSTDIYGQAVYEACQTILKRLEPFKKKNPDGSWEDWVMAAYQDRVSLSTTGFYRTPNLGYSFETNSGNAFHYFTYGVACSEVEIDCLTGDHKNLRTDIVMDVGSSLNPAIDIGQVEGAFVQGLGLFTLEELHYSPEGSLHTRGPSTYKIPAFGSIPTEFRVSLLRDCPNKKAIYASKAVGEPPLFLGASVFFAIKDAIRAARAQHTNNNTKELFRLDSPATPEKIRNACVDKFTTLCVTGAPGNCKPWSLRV
Procedure: The xanthine oxidase (XO) inhibitory activity of the compounds was determined using continuous spectrophotometric rate based on a modified protocol of Sigma. […]. In a 96-well plate, the final reaction mixture consisted of 10 µL of sample (dissolved in DMSO, […] stock solution, 100 µM final), 100 µL of xanthine solution (0.15 mM, pH = 7.4), 140 µL of buffer (potassium phosphate, pH = 7.5) and 50 µL of XO (0.2 units/mL). When measuring the enzyme activity, control buffer was used in place of the sample. Allopurinol was applied as a control. The reaction was initiated by the automatic addition of 50 µL of XO solution. The absorbance of XO-induced uric acid production from xanthine was measured at 290 nm for 3 min in a 96-well plate on a BMG Labtech FluoStar Optima plate reader. The inhibitory percentage values were calculated by using Graph Pad Prism 8.0 (La Jolla, CA, USA).

Row | Structure (SMILES) | IC50 (washed human platelets) [µM] | IC50 (COX-1 enzyme) [µM] | inhibition at 100 µM (xanthine oxidase (XO)) [%] | LLE(COX-1) (COX-1 enzyme) | antiplatelet activity (in words) (washed human platelets; AA-induced platelet aggregation) | ORAC TE [1] | times weaker antiplatelet effect than the most promising compounds (washed human platelets; AA-induced platelet aggregation, ratio of IC50 values)
1 | CCCCCCCNC(=O)CCc1ccc(O)c(OC)c1 [Compound 22] | 35.9 ± 23.7 | > 100 | < 5 | – | only moderate activity | 1.62 ± 0.004 Trolox equivalents (TE) | –
2 | CCCCCCCC(=O)CCc1ccc(O)c(OC)c1 [Compound 3, 4,5-dihydro-6-shogaol] | 2.1 ± 1 | 4.4 ± 0.2 | < 5 | 1.26 | – | 1.36 ± 0.02 Trolox equivalents (TE) | –
3 | CCCCC[C@H](O)CC(=O)CCc1ccc(O)c(OC)c1 [Compound 1, (S)-5-hydroxy-1-(4-hydroxy-3-methoxyphenyl)decan-3-one] | 45.9 ± 5.1 | 62.5 ± 23.8 | < 5 | 1.30 | – | 1.30 ± 0.04 Trolox equivalents (TE) | up to 22 times
4 | CCCCC[C@H](O)C[C@@H](O)CCc1ccc(O)c(OC)c1 [Compound 6, (3S,5S)-1-(4-hydroxy-3-methoxyphenyl)decane-3,5-diol] | 45.1 ± 6 | 76.2 ± 0.3 | < 5 | 1.12 | – | 1.12 ± 0.03 Trolox equivalents (TE) | –
5 | CCCCC[C@H](O)C[C@H](O)CCc1ccc(O)c(OC)c1 [Compound 5, (3R,5S)-1-(4-hydroxy-3-methoxyphenyl)decane-3,5-diol] | 51.7 ± 2.7 | 54.3 ± 6.5 | < 5 | 1.27 | – | 2.30 ± 0.05 Trolox equivalents (TE) | –
6 | CCCCCCCC(CCc1ccc(O)c(OC)c1)=NO [Compound 4, 1-(4-hydroxy-3-methoxyphenyl)decan-3-one oxime] | 5.2 ± 0.4 | 5.2 ± 0.3 | 10.6 ± 2.3 | 0.48 | – | 0.47 ± 0.09 Trolox equivalents (TE) | –

Continued, in another order:

Row | IC50 (washed human platelets) [µM] | IC50 (COX-1 enzyme) [µM] | inhibition at 100 µM (xanthine oxidase (XO)) [%] | LLE(COX-1) (COX-1 enzyme) | Structure (SMILES) | antiplatelet activity (in words) (washed human platelets; AA-induced platelet aggregation) | ORAC TE [1] | times weaker antiplatelet effect than the most promising compounds (washed human platelets; AA-induced platelet aggregation, ratio of IC50 values)
7 | 32 ± 10.1 | > 200 | < 5 | – | CCCCCc1cc(/C=C/c2ccc(O)cc2)on1 [Compound 18, (E)-4-(2-(3-pentylisoxazol-5-yl)vinyl)phenol] | – | 1.76 ± 0.06 Trolox equivalents (TE) | –
8 | > 100 | > 200 | 12.3 ± 0.9 | – | CCCCCc1cc(CCc2ccc(O)cc2)[nH]n1 [Compound 15, 4-(2-(3-pentyl-1H-pyrazol-5-yl)ethyl)phenol] | – | 1.00 ± 0.02 Trolox equivalents (TE) | –
9 | 2.8 ± 0.5 | 9.8 ± 0.6 | < 5 | 0.81 | CCCCC/C=C/C(=O)CCc1ccc(O)c(OC)c1 [Compound 2, 6-shogaol] | – | 1.10 ± 0.03 Trolox equivalents (TE) | –
10 | 4.1 ± 1.2 | 3.6 ± 0.2 | 10.1 ± 1.65 | 0.74 | CCCCCc1cc(CCc2ccc(O)c(OC)c2)[nH]n1 [Compound 14, 2-methoxy-4-(2-(3-pentyl-1H-pyrazol-5-yl)ethyl)phenol] | – | 0.44 ± 0.07 Trolox equivalents (TE) | –
11 | 3.5 ± 0.9 | 17.5 ± 0.1 | 16 ± 4.05 | −0.04 | CCCCCc1cc(/C=C/c2ccc(O)cc2)[nH]n1 [Compound 16, (E)-4-(2-(3-pentyl-1H-pyrazol-5-yl)vinyl)phenol] | – | 2.88 ± 0.16 Trolox equivalents (TE) | –
12 | 3.1 ± 0.9 | 5.85 ± 0.04 | < 5 | 0.83 | CCCCCc1cc(/C=C/c2ccc(O)c(OC)c2)on1 [Compound 17, (E)-2-methoxy-4-(2-(3-pentylisoxazol-5-yl)vinyl)phenol] | – | 0.77 ± 0.20 Trolox equivalents (TE) | –
